According to ChEMBL document CHEMBL5346901, “Discovery of potent Plasmodium falciparum protein kinase 6 (PfPK6) inhibitors with a type II inhibitor pharmacophore” (Eur J Med Chem, 2023):
Values after ≈ are worked out from the molar mass of the structure shown. Active and inactive are the calls of the source. The rule behind the calls is not given here.

Key:
[1] = system: Plasmodium falciparum; assay: Antimalarial activity against blood stage Plasmodium falciparum 3D7 assessed as reduction in parasite growth incubated for 72 hrs by SYBR Green dye based fluorescence assay; assay type: functional, organism-based; conditions: 3D7, 72 h
[2] = system: HepG2; assay: Cytotoxicity against human HepG2 cells assessed as reduction in cell viability by CellTiter-Glo assay; assay type: toxicity, cell-based
[3] = system: Plasmodium berghei; assay: Antimalarial activity against liver stage Plasmodium berghei ANKA sporozoites in human HepG2 cells assessed as reduction in parasite load measured after 44 hrs by […] reagent based […] analysis; assay type: functional, organism-based
[4] = system: HepG2; assay: Cytotoxicity against human HepG2 cells infected with liver stage Plasmodium berghei ANKA sporozoites assessed as reduction in cell viability measured after 44 hrs by […] assay; assay type: toxicity, cell-based; conditions: hepg2, 44 h
[5] = Kinetic solubility of the compound at pH 7.4; assay type: physicochemical; conditions: buffer, read-out: Kinetic_solubility
[6] = Apparent permeability of compound by PAMPA assay; assay type: ADME
[7] = Microsomal stability in human liver microsomes assessed as parent compound remaining at 5 uM measured after 30 mins in presence of NADPH; assay type: ADME, Microsome; conditions: 0.5 h
[8] = Microsomal stability in mouse liver microsomes assessed as parent compound remaining at 5 uM measured after 30 mins in presence of NADPH; assay type: ADME, Microsome; conditions: 0.5 h
[9] = system: Plasmodium falciparum; assay: Inhibition of plasmodium falciparum ARK1 assessed as remaining activity at 1 uM incubated for 2 hrs by luciferin-based luminescence assay relative to control
[10] = system: Plasmodium falciparum; assay: Inhibition of plasmodium falciparum CDPK5 assessed as remaining activity at 1 uM incubated for 2 hrs by luciferin-based luminescence assay relative to control
[11] = target: T1, Glycogen synthase kinase 3 (Plasmodium falciparum (isolate 3D7)) (UniProt O77344); assay: Inhibition of plasmodium falciparum GSK3 assessed as remaining activity at 1 uM incubated for 2 hrs by luciferin-based luminescence assay relative to control
T1 sequence (whole entry): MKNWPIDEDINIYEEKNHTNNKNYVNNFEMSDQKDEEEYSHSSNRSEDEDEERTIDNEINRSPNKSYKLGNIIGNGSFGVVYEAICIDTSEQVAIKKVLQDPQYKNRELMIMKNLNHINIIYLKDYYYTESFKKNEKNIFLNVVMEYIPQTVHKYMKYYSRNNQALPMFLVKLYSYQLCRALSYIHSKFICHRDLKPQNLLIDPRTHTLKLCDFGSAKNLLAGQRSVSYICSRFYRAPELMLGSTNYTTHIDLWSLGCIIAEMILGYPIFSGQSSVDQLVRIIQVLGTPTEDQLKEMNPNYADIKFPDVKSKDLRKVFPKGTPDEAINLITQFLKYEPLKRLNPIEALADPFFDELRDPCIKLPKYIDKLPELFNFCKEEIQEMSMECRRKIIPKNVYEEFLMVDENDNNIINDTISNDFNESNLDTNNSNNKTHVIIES

[12] = system: Plasmodium falciparum; assay: Inhibition of plasmodium falciparum NEK1 assessed as remaining activity at 1 uM incubated for 2 hrs by luciferin-based luminescence assay relative to control
[13] = system: Plasmodium falciparum; assay: Inhibition of plasmodium falciparum NEK3 assessed as remaining activity at 1 uM incubated for 2 hrs by luciferin-based luminescence assay relative to control
[14] = system: Plasmodium falciparum; assay: Inhibition of plasmodium falciparum PK5 assessed as remaining activity at 1 uM incubated for 2 hrs by luciferin-based luminescence assay relative to control
[15] = system: Plasmodium falciparum; assay: Inhibition of plasmodium falciparum PKB assessed as remaining activity at 1 uM incubated for 2 hrs by luciferin-based luminescence assay relative to control
[16] = system: Plasmodium falciparum; assay: Inhibition of plasmodium falciparum CDPK2 assessed as remaining activity at 1 uM incubated for 2 hrs by luciferin-based luminescence assay relative to control
[17] = system: Plasmodium falciparum; assay: Inhibition of plasmodium falciparum ARK3 assessed as remaining activity at 1 uM incubated for 2 hrs by luciferin-based luminescence assay relative to control
[18] = system: Plasmodium falciparum; assay: Inhibition of plasmodium falciparum PK9 assessed as remaining activity at 1 uM incubated for 2 hrs by luciferin-based luminescence assay relative to control
[19] = target: Calcium-dependent protein kinase 1 (Plasmodium falciparum) (UniProt P62344); assay: Inhibition of plasmodium falciparum CDPK1 assessed as remaining activity at 1 uM by Kinomescan method relative to control; conditions: time 2.0 hrs
Sequence of Calcium-dependent protein kinase 1 (Plasmodium falciparum) (P62344 2-524 limits assumed): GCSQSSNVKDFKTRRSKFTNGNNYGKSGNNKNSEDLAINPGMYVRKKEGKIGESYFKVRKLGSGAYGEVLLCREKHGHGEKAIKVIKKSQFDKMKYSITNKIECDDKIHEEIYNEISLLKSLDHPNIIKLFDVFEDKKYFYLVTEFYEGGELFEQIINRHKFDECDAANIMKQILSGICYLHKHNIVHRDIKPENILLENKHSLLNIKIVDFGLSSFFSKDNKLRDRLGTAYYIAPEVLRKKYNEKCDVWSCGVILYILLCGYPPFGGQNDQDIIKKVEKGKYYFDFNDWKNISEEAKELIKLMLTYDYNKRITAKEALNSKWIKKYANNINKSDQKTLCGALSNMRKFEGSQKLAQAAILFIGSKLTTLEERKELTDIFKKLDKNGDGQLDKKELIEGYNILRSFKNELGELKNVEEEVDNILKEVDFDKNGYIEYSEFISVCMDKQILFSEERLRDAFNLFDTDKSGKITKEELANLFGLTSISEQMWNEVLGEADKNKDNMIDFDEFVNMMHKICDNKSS

[20] = system: Plasmodium falciparum; assay: Inhibition of plasmodium falciparum PK5 assessed as remaining activity at 1 uM by Kinomescan method relative to control
[21] = target: T2, Cdk-related protein kinase 6 (Plasmodium falciparum, UniProt O77239)
T2 sequence (O77239 whole entry): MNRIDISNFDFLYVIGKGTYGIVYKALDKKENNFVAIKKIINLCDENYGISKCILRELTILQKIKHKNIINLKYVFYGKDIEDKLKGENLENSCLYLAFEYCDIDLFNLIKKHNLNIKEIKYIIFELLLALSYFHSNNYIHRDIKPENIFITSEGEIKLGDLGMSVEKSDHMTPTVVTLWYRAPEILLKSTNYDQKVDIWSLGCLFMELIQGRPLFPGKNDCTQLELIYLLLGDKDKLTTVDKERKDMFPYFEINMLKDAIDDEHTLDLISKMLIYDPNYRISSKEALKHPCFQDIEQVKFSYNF
Description: Inhibition of N-terminal 6His-tagged plasmodium falciparum PK6 expressed in Escherichia coli BL21(DE3) incubated for 15 mins in presence of [gamma-32p]ATP and ATP by SDS-PAGE based autoradiography analysis

In the case of `COc1cc2nccc(Oc3ccc(NC(=O)Nc4ccc(C=C5CCNCC5)cc4)c(F)c3)c2cc1OC`, the EC50 [1] is reported as 0.14 µM, the CC50 [2] is reported as 2.57 µM and the Activity [3] is reported as “inactive”. For the same compound, the CC50 [4] was 6.62 µM, the solubility kinetic [5] was 7.4 µM (≈ 3.91 µg/mL) and the Papp [6] was < 0.709 10^-6 cm/s. For the same compound, the Stability [7] was 88.6%, the Stability [8] was 86.7% and the Activity [9] was 98%. For the same compound, the Activity [10] was 98%, the Activity [11] was 100% and the Activity [12] was 100%. For the same compound, the Activity [13] was 84%, the Activity [14] was 100% and the Activity [15] was 38%. It also gave an Activity [16] of 96%.
In the case of `COc1cc2nccc(Oc3ccc(NC(=O)Nc4ccc(OC5CCN(C)CC5)c(C(F)(F)F)c4)c(F)c3)c2cc1OC`, the EC50 [1] is reported as 0.04 µM, the CC50 [2] is reported as 1 µM and the Activity [3] is reported as “inactive”. For the same compound, the CC50 [4] was 0.41 µM, the solubility kinetic [5] was 1.5 µM (≈ 0.922 µg/mL) and the Papp [6] was < 0.513 10^-6 cm/s. It also gave a Stability [7] of 88.6%, a Stability [8] of 69.7% and an Activity [9] of 94%. For the same compound, the Activity [17] was 97%, the Activity [10] was 25% and the Activity [11] was 30%. It also gave an Activity [12] of 100%, an Activity [13] of 6% and an Activity [14] of 94%. For the same compound, the Activity [18] was 79%, the Activity [15] was 20% and the Activity [16] was 78%.
Compound `COc1cc2nccc(Oc3ccc(NC(=O)Nc4ccc(CC5CCNCC5)c(C(F)(F)F)c4)c(F)c3)c2cc1OC` has an EC50 [1] of 0.039 µM, a CC50 [2] of 1.29 µM and an EC50 ([3]; HepG2, 44 h) of 0.22 µM. The CC50 [4] was 1.29 µM, the solubility kinetic [5] was 2.1 µM (≈ 1.26 µg/mL) and the Papp [6] was 0.734 10^-6 cm/s. The Stability [7] was 98.1%, the Activity [9] was 100% and the Activity [17] was 87%. For the same compound, the Activity [10] was 27%, the Activity [11] was 34% and the Activity [12] was 100%. It also gave an Activity [13] of 7%, an Activity [14] of 94% and an Activity [18] of 89%. The Activity [15] was 21%, the Activity [19] was 1.1% and the Activity [20] was 80%. It also gave an Activity [16] of 64%.
With `COc1cc2nccc(Oc3ccc(NC(=O)Nc4ccc(CC5CCNCC5)cc4)c(F)c3)c2cc1OC` the EC50 [1] was 0.16 µM, the CC50 [2] was 4.39 µM and the Activity [3] was “inactive”. For the same compound, the CC50 [4] was 3.29 µM, the solubility kinetic [5] was 10.9 µM (≈ 5.78 µg/mL) and the Papp [6] was < 0.669 10^-6 cm/s. It also gave a Stability [8] of 85.8%, an Activity [9] of 97% and an Activity [10] of 91%. It also gave an Activity [11] of 97%, an Activity [12] of 100% and an Activity [13] of 82%. It also gave an Activity [14] of 97%, an Activity [18] of 99% and an Activity [15] of 30%. It also gave an Activity [19] of 51%, an Activity [20] of 84% and an Activity [16] of 88%.
`Cn1cnc2c(NCc3ccccc3)nc(NCCO)nc21` [OLOMOUCINE] gave an IC50 [21] of 180 µM.
